Among the data in ChEMBL document CHEMBL1135773, “Purine and pyrimidine (P2) receptors as drug targets” (J Med Chem, 2002) are IC50 and EC50 values, retold here.

For assay [1], the target named is T1, P2Y purinoceptor 2 (Homo sapiens, UniProt P41231). Put plainly: The compound was evaluated for antagonistic activity against P2Y purinoceptor 2 (P2Y2). The format is functional.
The nature of assay [2]: The compound was evaluated for antagonist activity against P2X purinoceptor. The class given is functional.
For the next assay, the target named is P2Y purinoceptor 1 (Meleagris gallopavo, UniProt P49652). As to the kind of experiment: Evaluated for agonist activity against phospholipase C coupled P2Y purinoceptor 1 (P2Y1) of turkey erythrocytes. The class given is functional.
Assay [3] addresses T2, P2X purinoceptor 2 (Rattus norvegicus, UniProt P49653).
T2 sequence (P49653 whole entry): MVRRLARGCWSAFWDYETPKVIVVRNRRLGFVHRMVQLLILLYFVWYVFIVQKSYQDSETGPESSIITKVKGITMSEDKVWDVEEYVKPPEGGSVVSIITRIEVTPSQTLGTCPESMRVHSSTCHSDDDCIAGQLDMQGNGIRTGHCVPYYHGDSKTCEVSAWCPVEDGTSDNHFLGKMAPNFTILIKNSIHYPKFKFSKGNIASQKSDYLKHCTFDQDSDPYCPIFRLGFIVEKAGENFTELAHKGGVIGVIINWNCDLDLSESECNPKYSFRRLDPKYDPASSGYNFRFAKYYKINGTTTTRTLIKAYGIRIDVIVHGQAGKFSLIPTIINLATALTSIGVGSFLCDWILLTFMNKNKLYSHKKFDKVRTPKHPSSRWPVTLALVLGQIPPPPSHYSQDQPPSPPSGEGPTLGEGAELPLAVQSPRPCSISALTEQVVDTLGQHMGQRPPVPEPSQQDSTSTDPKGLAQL
As to the kind of experiment: The compound was evaluated for antagonist activity against recombinant rat receptor P2X purinoceptor 2 (P2X2) at 10 uM, expressed in Xenopus oocytes. The format is functional, cell-based, Oocyte.

Assay [4] has as its target T3, P2X purinoceptor 4 (Homo sapiens, UniProt Q99571).
T3 sequence (Q99571 whole entry): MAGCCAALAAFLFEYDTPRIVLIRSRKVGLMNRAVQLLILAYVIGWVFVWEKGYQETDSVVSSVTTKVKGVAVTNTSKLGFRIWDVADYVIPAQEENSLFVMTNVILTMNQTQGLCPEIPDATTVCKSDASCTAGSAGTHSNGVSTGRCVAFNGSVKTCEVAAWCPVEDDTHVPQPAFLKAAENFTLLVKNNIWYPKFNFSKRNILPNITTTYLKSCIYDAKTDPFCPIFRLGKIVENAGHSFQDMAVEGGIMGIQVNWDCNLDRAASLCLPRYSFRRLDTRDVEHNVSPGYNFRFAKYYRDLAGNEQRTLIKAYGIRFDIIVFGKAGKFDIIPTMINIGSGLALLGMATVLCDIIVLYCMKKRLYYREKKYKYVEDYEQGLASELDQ
As to the kind of experiment: Antagonist activity against recombinant human P2X purinoceptor 4 (P2X4). The class given is functional.

For assay [5], the target named is T4, P2X purinoceptor 4 (Rattus norvegicus, UniProt P51577).
T4 sequence (P51577 whole entry): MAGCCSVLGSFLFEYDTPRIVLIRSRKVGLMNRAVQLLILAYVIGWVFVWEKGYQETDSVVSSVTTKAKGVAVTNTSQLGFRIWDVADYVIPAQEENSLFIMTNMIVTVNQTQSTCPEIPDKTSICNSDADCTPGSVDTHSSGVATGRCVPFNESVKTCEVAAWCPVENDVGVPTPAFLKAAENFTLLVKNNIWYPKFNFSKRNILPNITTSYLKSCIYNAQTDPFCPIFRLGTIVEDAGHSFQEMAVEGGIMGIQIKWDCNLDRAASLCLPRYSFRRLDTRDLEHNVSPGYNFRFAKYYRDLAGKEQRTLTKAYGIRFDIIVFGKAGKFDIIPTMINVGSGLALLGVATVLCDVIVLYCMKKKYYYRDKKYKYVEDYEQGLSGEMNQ
As to the kind of experiment: Antagonist activity against recombinant rat P2X purinoceptor 4 (P2X4) at 30 uM, expressed in Xenopus oocytes. The class given is functional, cell-based, Oocyte.

A further assay has as its target T5, P2X purinoceptor 5 (Rattus norvegicus, UniProt P51578).
T5 sequence (P51578 whole entry): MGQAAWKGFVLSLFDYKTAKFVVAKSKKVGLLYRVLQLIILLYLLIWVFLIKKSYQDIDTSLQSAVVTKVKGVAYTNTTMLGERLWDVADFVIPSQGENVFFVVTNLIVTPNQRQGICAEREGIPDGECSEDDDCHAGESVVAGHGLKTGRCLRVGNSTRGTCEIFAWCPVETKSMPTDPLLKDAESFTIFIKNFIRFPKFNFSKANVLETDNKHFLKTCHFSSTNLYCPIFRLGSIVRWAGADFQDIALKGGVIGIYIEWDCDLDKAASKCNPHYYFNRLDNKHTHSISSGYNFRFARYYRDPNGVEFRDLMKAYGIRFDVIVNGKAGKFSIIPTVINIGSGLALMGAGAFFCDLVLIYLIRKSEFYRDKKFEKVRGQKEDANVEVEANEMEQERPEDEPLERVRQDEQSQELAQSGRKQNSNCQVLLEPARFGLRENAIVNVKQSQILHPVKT
As to the kind of experiment: Antagonist activity against recombinant rat P2X purinoceptor 5 (P2X5). The class given is functional.

Another assay deals with P2X purinoceptor 6 (Rattus norvegicus, UniProt P51579). As to the kind of experiment: Antagonist activity against recombinant rat P2X purinoceptor 6 (P2X6 ). The format is functional.
The target of assay [6] is T2, P2X purinoceptor 2. Put plainly: Antagonist activity against recombinant rat receptor P2X purinoceptor 2 (P2X2) at 10 uM, expressed in Xenopus oocytes. The format is functional, cell-based, Oocyte.
For assay [7], the target named is T1, P2Y purinoceptor 2. Put plainly: Evaluated for agonist activity against phospholipase C coupled recombinant human P2Y purinoceptor 2 (P2Y2). The format is functional.
A further assay has as its target T6, P2X purinoceptor 3 (Homo sapiens, UniProt P56373).
T6 sequence (P56373 whole entry): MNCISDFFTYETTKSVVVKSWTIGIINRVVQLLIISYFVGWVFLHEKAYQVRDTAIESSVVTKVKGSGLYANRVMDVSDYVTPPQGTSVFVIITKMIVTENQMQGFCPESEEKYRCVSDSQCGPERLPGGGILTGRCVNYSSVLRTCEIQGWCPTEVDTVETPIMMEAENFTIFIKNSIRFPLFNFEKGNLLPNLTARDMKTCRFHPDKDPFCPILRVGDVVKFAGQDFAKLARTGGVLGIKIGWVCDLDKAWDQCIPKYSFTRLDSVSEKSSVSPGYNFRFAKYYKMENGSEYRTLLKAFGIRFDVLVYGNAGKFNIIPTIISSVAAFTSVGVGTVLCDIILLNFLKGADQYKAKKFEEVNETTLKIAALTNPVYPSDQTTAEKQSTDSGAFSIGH
As to the kind of experiment: Antagonist activity against recombinant human P2X purinoceptor 3 (P2X3 ). The class given is functional.

In another assay the target is T7, P2X purinoceptor 7 (Homo sapiens, UniProt Q99572).
T7 sequence (Q99572 whole entry): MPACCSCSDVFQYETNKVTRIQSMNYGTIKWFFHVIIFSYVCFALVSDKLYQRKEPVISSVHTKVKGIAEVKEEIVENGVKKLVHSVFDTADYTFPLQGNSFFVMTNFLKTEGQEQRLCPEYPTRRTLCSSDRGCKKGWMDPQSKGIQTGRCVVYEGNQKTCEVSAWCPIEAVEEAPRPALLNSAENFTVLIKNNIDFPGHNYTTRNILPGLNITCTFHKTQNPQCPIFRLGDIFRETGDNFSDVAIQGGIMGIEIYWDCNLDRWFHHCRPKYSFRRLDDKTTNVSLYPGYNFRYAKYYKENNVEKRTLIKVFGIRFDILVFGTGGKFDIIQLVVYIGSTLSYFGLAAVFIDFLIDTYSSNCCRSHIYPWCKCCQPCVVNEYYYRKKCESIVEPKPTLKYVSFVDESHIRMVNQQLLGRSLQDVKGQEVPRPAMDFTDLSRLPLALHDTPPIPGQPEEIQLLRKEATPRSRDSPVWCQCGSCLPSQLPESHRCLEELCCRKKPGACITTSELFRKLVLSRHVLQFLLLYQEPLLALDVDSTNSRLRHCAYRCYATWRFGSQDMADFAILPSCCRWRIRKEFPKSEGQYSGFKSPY
As to the kind of experiment: Antagonist activity against recombinant human P2X purinoceptor 7 (P2X7). The format is functional.

For another assay, the target named is P2Y purinoceptor 12 (Rattus norvegicus, UniProt Q9EPX4). As to the kind of experiment: Antagonist activity against phospholipase C coupled rat P2Y purinoceptor 12 (P2Y12). The class given is functional.
Assay [8] deals with P2Y purinoceptor 4 (Homo sapiens, UniProt P51582). Put plainly: The compound was evaluated for antagonist activity against phospholipase C coupled recombinant human P2Y purinoceptor 4 (P2Y4). The class given is functional.
Assay [9] deals with P2Y purinoceptor 4 (Rattus norvegicus, UniProt O35811). Put plainly: The compound was evaluated for agonist activity against phospholipase C coupled recombinant rat P2Y purinoceptor 4 (P2Y4). The format is functional.
The next assay has as its target P2Y purinoceptor 6 (Homo sapiens, UniProt Q15077). Put plainly: The compound was evaluated for agonist activity against phospholipase C coupled recombinant human P2Y purinoceptor 6 (P2Y6). The format is functional.
The next assay concerns the target T8, P2X purinoceptor 1 (Homo sapiens, UniProt P51575).
T8 sequence (P51575 whole entry): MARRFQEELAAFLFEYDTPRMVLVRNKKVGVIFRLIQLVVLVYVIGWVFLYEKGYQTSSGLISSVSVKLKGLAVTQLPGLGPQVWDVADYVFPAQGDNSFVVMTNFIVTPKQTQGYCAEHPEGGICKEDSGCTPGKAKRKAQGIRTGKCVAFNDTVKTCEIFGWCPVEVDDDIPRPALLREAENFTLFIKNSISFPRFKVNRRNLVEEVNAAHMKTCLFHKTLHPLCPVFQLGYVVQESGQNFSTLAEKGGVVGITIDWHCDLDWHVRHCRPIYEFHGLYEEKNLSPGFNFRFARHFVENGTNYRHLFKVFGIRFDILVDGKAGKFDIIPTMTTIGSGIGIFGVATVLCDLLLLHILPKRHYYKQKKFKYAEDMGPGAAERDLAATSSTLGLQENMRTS
As to the kind of experiment: Antagonist activity against recombinant human P2X purinoceptor 1 (P2X1 ). The format is functional.

In general, IC50 refers to the point on the concentration scale where inhibition reaches its midpoint. As a reminder, the EC50 is the concentration needed to bring the measured effect to its halfway point.

T1 sequence (P41231 whole entry): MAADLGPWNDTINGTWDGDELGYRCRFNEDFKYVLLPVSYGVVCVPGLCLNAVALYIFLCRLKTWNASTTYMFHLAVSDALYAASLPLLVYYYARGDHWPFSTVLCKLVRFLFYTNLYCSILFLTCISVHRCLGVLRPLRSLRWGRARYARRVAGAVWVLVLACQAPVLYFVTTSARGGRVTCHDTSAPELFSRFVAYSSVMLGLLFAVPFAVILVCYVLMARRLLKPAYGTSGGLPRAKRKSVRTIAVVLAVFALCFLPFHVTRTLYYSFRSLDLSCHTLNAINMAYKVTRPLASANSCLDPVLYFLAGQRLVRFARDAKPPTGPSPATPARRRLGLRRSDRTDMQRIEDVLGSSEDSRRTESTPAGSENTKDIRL
Sequence of P2Y purinoceptor 6 (Q15077 whole entry): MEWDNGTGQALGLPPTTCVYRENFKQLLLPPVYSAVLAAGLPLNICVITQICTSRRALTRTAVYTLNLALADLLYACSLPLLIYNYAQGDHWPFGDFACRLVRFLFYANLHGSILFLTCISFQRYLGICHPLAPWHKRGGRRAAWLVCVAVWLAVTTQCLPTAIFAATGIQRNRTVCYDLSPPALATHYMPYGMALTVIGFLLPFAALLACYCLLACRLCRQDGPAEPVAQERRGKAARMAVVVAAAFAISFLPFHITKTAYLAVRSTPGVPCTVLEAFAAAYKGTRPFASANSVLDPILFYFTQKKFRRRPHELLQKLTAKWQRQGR
Sequence of P2Y purinoceptor 1 (P49652 whole entry): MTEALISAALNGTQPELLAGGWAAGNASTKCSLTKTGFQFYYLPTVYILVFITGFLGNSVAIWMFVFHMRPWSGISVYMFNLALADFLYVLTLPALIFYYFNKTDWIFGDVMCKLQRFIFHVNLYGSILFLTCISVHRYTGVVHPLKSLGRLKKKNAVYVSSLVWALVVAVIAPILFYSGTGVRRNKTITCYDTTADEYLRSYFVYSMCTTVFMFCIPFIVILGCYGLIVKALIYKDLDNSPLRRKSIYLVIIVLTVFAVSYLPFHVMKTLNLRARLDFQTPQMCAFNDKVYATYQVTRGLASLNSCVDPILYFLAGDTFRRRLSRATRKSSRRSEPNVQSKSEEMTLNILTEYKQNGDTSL
Sequence of P2Y purinoceptor 12 (Q9EPX4 whole entry): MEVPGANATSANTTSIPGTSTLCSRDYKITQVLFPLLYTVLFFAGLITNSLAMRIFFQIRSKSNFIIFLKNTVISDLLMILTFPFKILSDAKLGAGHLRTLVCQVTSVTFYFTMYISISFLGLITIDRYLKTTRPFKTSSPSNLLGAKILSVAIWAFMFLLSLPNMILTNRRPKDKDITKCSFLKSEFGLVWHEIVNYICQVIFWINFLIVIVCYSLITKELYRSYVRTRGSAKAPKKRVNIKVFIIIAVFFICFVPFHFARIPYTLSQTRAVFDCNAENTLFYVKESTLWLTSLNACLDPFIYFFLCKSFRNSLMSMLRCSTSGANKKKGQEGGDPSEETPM
Sequence of P2Y purinoceptor 4 (Rattus norvegicus, UniProt O35811) (O35811 whole entry): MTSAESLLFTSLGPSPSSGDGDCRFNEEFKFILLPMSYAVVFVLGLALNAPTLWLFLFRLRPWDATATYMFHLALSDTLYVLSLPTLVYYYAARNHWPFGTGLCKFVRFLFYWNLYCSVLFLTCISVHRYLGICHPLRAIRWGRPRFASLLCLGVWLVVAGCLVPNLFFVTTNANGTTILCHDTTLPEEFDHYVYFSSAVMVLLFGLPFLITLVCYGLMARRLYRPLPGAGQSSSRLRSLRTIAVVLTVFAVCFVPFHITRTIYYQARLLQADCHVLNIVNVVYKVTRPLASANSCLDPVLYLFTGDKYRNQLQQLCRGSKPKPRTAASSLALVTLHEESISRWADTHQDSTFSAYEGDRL
Sequence of P2X purinoceptor 6 (P51579 whole entry): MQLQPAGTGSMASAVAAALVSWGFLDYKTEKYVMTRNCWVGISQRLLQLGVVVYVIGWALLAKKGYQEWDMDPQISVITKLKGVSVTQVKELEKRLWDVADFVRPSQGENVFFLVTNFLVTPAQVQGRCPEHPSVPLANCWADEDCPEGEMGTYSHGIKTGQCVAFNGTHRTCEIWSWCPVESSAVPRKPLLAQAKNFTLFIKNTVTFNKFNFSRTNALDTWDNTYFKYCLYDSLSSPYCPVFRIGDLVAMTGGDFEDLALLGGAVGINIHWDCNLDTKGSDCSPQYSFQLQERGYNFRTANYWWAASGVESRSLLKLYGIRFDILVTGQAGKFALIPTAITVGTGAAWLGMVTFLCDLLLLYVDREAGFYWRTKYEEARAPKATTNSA
Sequence of P2Y purinoceptor 4 (Homo sapiens, UniProt P51582) (P51582 whole entry): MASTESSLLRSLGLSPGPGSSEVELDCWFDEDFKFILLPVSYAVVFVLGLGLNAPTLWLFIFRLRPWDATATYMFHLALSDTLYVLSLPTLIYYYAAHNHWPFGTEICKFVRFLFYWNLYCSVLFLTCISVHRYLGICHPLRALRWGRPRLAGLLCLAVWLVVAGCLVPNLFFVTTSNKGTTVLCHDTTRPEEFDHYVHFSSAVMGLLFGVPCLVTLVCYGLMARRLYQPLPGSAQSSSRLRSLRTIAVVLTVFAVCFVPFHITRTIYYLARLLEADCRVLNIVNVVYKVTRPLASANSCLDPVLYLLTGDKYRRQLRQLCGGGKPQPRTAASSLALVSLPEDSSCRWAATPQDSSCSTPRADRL

`Cc1cc(-c2ccc(/N=N/c3c(S(=O)(=O)O)cc4cc(S(=O)(=O)O)cc(N)c4c3O)c(C)c2)ccc1/N=N/c1c(S(=O)(=O)O)cc2cc(S(=O)(=O)O)cc(N)c2c1O` [TRYPAN BLUE]: the 50% inhibitory concentration (IC50) came to 171000 nM against P2Y purinoceptor 2 [1] and 386000 nM in assay [2].
In the case of `Cc1nc(/N=N/c2cc(S(=O)(=O)O)ccc2Cl)c(COP(=O)(O)O)c(C=O)c1O`, the values for the EC50 on P2Y purinoceptor 1 and on P2X purinoceptor 2 [3] were 4.4 nM and 1.1 nM, respectively.
Take `Nc1ncnc2c1ncn2[C@@H]1O[C@H](COP(=O)(O)OP(=O)(O)OP(=O)(O)O)[C@@H](O)[C@H]1O` [ADENOSINE TRIPHOSPHATE]: the EC50 on P2X purinoceptor 4 [4] was 500 nM; at P2X purinoceptor 4 [5], 1000 nM; on P2X purinoceptor 5, 1000 nM; at P2X purinoceptor 6 it was 1000 nM; on P2X purinoceptor 2 [6] it was 1400 nM; on P2Y purinoceptor 2 [7] it was 230 nM. Further, the EC50 was 340 nM at P2X purinoceptor 3; 780000 nM at P2X purinoceptor 7; 3190 nM on P2Y purinoceptor 12; 43000 nM at P2Y purinoceptor 4 [8]; 1800 nM on P2Y purinoceptor 4 [9]; > 100000 nM at P2Y purinoceptor 6. On P2X purinoceptor 1, the half-maximal effective concentration (EC50) was determined as 56 nM.
